# Results: patent US8188078B2 (Sanofi-Aventis, priority 2007, dated 2012)
# Experiments:
# RON = RON (Homo sapiens, UniProt Q04912); test: Test B: HTRF RON test in 96-well format; format: biochemical
# In short: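 RON 5 nM pre-incubated 30 min at RT with compound (0.17 nM–10 μM final, 3% DMSO) in MOPS 10 mM pH 7, DTT, Tween 20. Reaction with biotinylated poly-(GAT) 1 μg/ml, ATP 10 μM, MgCl2 5 mM, 30 min RT. Eu-anti-pTyr/streptavidin-XL665 HTRF, 665/620 ratio gives % inhibition, IC50.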
# c-MET = biological target: T1, c-MET (Homo sapiens, UniProt P08581); test: Test A: HTRF Met test in 96-well format; format: biochemical
# T1 construct: The recombinant DNA His-Tev-MET (956-1390) in pFastBac(Invitrogen); His (N, cleaved yes); Tev (TEV protease site) (N, cleaved yes); made in house; host or cells: SF21 insect cells (baculovirus, pFastBac)
# In short: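 The kinase was the Sf21-expressed MET cytoplasmic domain (956–1390), His tag removed, used at 5 nM with compound (0.17 nM–10 µM, 3% DMSO) in 10 mM MOPS pH 7.4. Poly-GAT 1 µg/ml, 10 µM ATP and 5 mM MgCl2 reacted 10 min at RT. After an EDTA stop, phosphotyrosine was detected by HTRF (665/620 ratio).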
# T1 sequence (P08581 956-1390): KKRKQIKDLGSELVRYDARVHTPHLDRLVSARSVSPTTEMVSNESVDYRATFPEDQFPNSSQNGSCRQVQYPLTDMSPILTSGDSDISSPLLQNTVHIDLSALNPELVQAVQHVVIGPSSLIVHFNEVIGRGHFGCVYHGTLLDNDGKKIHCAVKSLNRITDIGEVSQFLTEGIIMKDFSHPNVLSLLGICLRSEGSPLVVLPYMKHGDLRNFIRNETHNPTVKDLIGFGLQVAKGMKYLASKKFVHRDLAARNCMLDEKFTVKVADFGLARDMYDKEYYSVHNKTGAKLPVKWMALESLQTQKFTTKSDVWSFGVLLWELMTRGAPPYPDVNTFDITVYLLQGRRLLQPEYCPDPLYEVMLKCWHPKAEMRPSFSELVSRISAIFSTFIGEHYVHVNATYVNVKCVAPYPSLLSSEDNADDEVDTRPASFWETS
# Chain of RON (Q04912 25-1400): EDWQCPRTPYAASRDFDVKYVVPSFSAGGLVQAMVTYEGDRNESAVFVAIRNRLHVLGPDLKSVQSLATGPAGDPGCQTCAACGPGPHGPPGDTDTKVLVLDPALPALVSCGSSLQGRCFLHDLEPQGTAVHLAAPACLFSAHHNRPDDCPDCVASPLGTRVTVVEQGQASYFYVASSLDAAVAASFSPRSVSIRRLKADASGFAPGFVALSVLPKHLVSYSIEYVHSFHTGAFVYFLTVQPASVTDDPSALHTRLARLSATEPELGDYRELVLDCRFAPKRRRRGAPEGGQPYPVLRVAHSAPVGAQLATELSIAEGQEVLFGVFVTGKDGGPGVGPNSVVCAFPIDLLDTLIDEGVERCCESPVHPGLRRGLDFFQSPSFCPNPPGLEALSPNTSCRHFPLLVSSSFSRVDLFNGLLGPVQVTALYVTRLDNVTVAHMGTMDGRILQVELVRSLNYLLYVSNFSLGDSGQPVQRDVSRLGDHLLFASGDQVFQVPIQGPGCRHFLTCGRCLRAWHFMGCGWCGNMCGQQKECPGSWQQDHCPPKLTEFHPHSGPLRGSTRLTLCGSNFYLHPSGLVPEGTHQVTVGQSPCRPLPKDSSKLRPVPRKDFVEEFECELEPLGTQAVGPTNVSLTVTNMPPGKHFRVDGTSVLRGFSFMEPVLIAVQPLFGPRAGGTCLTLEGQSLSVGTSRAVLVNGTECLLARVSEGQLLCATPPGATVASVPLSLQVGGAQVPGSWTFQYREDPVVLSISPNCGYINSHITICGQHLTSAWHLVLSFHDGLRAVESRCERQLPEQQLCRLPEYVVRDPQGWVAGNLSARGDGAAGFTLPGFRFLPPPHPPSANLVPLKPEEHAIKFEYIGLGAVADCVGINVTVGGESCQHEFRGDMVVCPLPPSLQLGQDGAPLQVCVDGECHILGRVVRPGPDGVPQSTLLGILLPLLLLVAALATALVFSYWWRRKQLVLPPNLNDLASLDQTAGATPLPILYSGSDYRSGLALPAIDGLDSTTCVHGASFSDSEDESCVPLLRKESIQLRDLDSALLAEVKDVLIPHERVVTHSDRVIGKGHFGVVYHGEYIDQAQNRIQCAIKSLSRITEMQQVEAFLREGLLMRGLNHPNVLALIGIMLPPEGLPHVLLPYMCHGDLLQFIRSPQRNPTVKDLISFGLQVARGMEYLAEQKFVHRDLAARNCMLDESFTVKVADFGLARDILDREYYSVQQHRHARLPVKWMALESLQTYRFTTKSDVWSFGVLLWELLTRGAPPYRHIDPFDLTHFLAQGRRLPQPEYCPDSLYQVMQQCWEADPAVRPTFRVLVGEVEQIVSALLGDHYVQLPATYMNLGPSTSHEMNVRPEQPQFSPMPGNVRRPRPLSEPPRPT
test B (RON),IC50 (c-MET) [nM],IC50 (RON) [µM],Molecule
+=,< 100,–,"CC(Oc1cc2sc(NC(=O)NCCN3CCNC(=O)C3)nc2cc1F)c1c(Cl)ccc(F)c1Cl (stereo not shown) [Example 130, 1-{6-[1-(2,6-dichloro-3-fluorophenyl)ethoxy]-5-fluoro-1,3-benzothiazol-2-yl}-3-[2-(3-oxopiperazin-1-yl)ethyl]urea]"
–,< 100,0.5 to 10,"{6-[1-(2,6-dichloro-3-fluorophenyl)ethoxy]-5-fluoro-1,3-benzothiazol-2-yl}2-(pyrrolidin-1-yl)ethyl carbamate [Example 73]"
